From PubChem BioAssay AID1963839 (Molecular Pharmacology Branch, DTP, NCI, 2024)

Test system: 817829-284-R-J1-PDC complex spheroid viability
Experiment: Anticancer human tumor 817829-284-R-J1-PDC patient-derived colon adenocarcinoma cell line growth inhibition [POLQ]
Details: for IC50: curve of first compound; for viability, T/C: stronger effect = lower value
Method in brief: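 Growth inhibition in 3D: complex spheroids (tumor PDC, HUVEC, MSC) treated with POLQ inhibitor combinations; where Cmax unknown, highest tested concentration 10 microM, except SN-38 at 1 microM.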

[1] = second compound 0.0316 µM, first compound 0.0316 µM
[2] = second compound 0.0316 µM, first compound 0.1 µM
[3] = second compound 0.0316 µM, first compound 0.316 µM
[4] = second compound 0.0316 µM, first compound 1 µM
[5] = second compound 0.0316 µM, first compound 3.16 µM
[6] = second compound 0.0316 µM, first compound 10 µM
[7] = second compound 0.1 µM, first compound 0.0316 µM
[8] = second compound 0.1 µM, first compound 0.1 µM
[9] = second compound 0.1 µM, first compound 0.316 µM
[10] = second compound 0.1 µM, first compound 1 µM
[11] = second compound 0.1 µM, first compound 3.16 µM
[12] = second compound 0.1 µM, first compound 10 µM
[13] = second compound 0.316 µM, first compound 0.0316 µM
[14] = second compound 0.316 µM, first compound 0.1 µM
[15] = second compound 0.316 µM, first compound 0.316 µM
[16] = second compound 0.316 µM, first compound 1 µM
[17] = second compound 0.316 µM, first compound 3.16 µM
[18] = second compound 0.316 µM, first compound 10 µM
[19] = second compound 1 µM, first compound 0.0316 µM
[20] = second compound 1 µM, first compound 0.1 µM
[21] = second compound 1 µM, first compound 0.316 µM
[22] = second compound 1 µM, first compound 1 µM
[23] = second compound 1 µM, first compound 3.16 µM
[24] = second compound 1 µM, first compound 10 µM
[25] = second compound 3.16 µM, first compound 0.0316 µM
[26] = second compound 3.16 µM, first compound 0.1 µM
[27] = second compound 3.16 µM, first compound 0.316 µM
[28] = second compound 3.16 µM, first compound 1 µM
[29] = second compound 3.16 µM, first compound 3.16 µM
[30] = second compound 3.16 µM, first compound 10 µM
[31] = second compound 10 µM, first compound 0.0316 µM
[32] = second compound 10 µM, first compound 0.1 µM
[33] = second compound 10 µM, first compound 0.316 µM
[34] = second compound 10 µM, first compound 1 µM
[35] = second compound 10 µM, first compound 3.16 µM
[36] = second compound 10 µM, first compound 10 µM
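Further: spheroids exposed to compounds for 7 days.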
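Wherever viability, T/C is given: 100% = DMSO vehicle-treated spheroids.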

`CCc1cc2c(N3CCc4c(cc(Cn5ccnc5)cc4-c4cn(C)nc4C(F)(F)F)C3=O)ccnc2c(OC)n1` + Cc1cccc(N(C)C(=O)C2C(O)CCN2c2nc(C)cc(C(F)(F)F)c2C#N)c1 showed an IC50 (second compound 0.0316 µM) of 3280 nM, an IC50 (second compound 0.1 µM) of 4180 nM and an IC50 (second compound 0.316 µM) of 4630 nM. The IC50 (second compound 1 µM) was 2770 nM, the IC50 (second compound 3.16 µM) was 2430 nM and the IC50 (second compound 10 µM) was 1570 nM. For the same molecule, the viability, T/C [1] was 84%, the viability, T/C [2] was 73.8% and the viability, T/C [3] was 67.4%. For the same molecule, the viability, T/C [4] was 64.2%, the viability, T/C [5] was 49.7% and the viability, T/C [6] was 38.4%. For the same molecule, the viability, T/C [7] was 87.5%, the viability, T/C [8] was 96% and the viability, T/C [9] was 72.7%. It also gave a viability, T/C [10] of 77.2%, a viability, T/C [11] of 54.7% and a viability, T/C [12] of 31.2%. It also gave a viability, T/C [13] of 95.5%, a viability, T/C [14] of 87.9% and a viability, T/C [15] of 76.9%. For the same molecule, the viability, T/C [16] was 73.8%, the viability, T/C [17] was 51.3% and the viability, T/C [18] was 41.1%. The viability, T/C [19] was 90.6%, the viability, T/C [20] was 82.2% and the viability, T/C [21] was 76.8%. It also gave a viability, T/C [22] of 65.4%, a viability, T/C [23] of 47.1% and a viability, T/C [24] of 29.3%. The viability, T/C [25] was 84.9%, the viability, T/C [26] was 94.9% and the viability, T/C [27] was 86.8%. For the same molecule, the viability, T/C [28] was 61.1%, the viability, T/C [29] was 50.1% and the viability, T/C [30] was 32.8%. It also gave a viability, T/C [31] of 92.9%, a viability, T/C [32] of 71.8% and a viability, T/C [33] of 69.1%. The viability, T/C [34] was 56.8%, the viability, T/C [35] was 42.1% and the viability, T/C [36] was 30.5%.

With `COc1ccc([C@@H](O)c2cc(-c3ncnc4cc(N5CCOCC5)ccc34)c(F)cc2Cl)nn1` + Cc1cccc(N(C)C(=O)C2C(O)CCN2c2nc(C)cc(C(F)(F)F)c2C#N)c1 the IC50 (second compound 0.0316 µM) was 715 nM, the IC50 (second compound 0.1 µM) was 719 nM and the IC50 (second compound 0.316 µM) was 932 nM. For the same molecule, the IC50 (second compound 1 µM) was 1220 nM, the IC50 (second compound 3.16 µM) was 474 nM and the IC50 (second compound 10 µM) was 751 nM. The viability, T/C [1] was 112%, the viability, T/C [2] was 112% and the viability, T/C [3] was 72%. The viability, T/C [4] was 42.3%, the viability, T/C [5] was 22.3% and the viability, T/C [6] was 17.9%. The viability, T/C [7] was 103%, the viability, T/C [8] was 80.3% and the viability, T/C [9] was 66.9%. It also gave a viability, T/C [10] of 40.8%, a viability, T/C [11] of 32.7% and a viability, T/C [12] of 19.9%. The viability, T/C [13] was 107%, the viability, T/C [14] was 74.6% and the viability, T/C [15] was 102%. The viability, T/C [16] was 47.1%, the viability, T/C [17] was 28.3% and the viability, T/C [18] was 15.5%. The viability, T/C [19] was 111%, the viability, T/C [20] was 105% and the viability, T/C [21] was 92.2%. The viability, T/C [22] was 54.5%, the viability, T/C [23] was 28.1% and the viability, T/C [24] was 21.9%. The viability, T/C [25] was 98.6%, the viability, T/C [26] was 130% and the viability, T/C [27] was 62%. For the same molecule, the viability, T/C [28] was 38.3%, the viability, T/C [29] was 27% and the viability, T/C [30] was 18.6%. For the same molecule, the viability, T/C [31] was 92%, the viability, T/C [32] was 81% and the viability, T/C [33] was 70.8%. The viability, T/C [34] was 41.4%, the viability, T/C [35] was 26.3% and the viability, T/C [36] was 13.5%.
